One compound from patent US20020036154A1, “Solid pharmaceutical dosage formulation of hydrophobic drugs” (priority 2000, published 2002) can be followed below.

This data set can be described thus: Dissolution profiles of hydrocortisone (CCN90306A) Accudep Cores (paddles, 75 rpm, distilled water). It is filed as physicochemical. The following applies: 1 mg CCN90306A, vs control core, 75 rpm paddles, n=3, FIG. 7. How it is done:
Accudep™ Cores were made as follows: Control Accudep™ Core: Sealed a 1 mg deposition of CCN90306A between two polymer sheets with the following composition: 45% HPMC, 45% HPC, 10% PEG.

As for `C[C@]12CCC(=O)C=C1CC[C@@H]1[C@@H]2[C@@H](O)C[C@@]2(C)[C@H]1CC[C@]2(O)C(=O)CO` [CCN90306A, Hydrocortisone], the “dissolution at 20- and 30-minute sample points” value by setting is: (Polysorbate 80 incorporated in film Accudep Core (20%)) “faster dissolution”; (SLS incorporated in film Accudep Core (20% SLS)) “faster dissolution”.
